Data as given in patent publication US9844546B2, “Antibody against human HIF hydroxylase” (OXFORD UNIVERSITY INNOVATION LIMITED, priority 2001, dated 2017).
“Also recorded” adds a separate entry of the source.

What was measured:
[1] = test system: C. elegans; test: Immunoblot of ceHIF (HIF-1) in extracts of treated worms; type: in vivo; conditions: 1 mM, 21% oxygen, wild type worms
Procedure: Immunoblots of ceHIF levels in extracts of c. elegans were carried out to monitor regulation by hypoxia and iron chelation. Firstly, the oxygen dependence of protein induction was analysed. Worms were grown on plates in bell jars flushed with air (N), or with oxygen/balance nitrogen having an oxygen concentration of 5%, 1%, 0.5% or 0.1% for 18 hrs. A graded increase in protein level was seen as the oxygen level was reduced below 5% with the highest level of induction at 0.5 and 0.1% oxygen concentration. The time course of protein induction was then studied. Worms were grown in bell jars flushed with a 0.1% oxygen/balance nitrogen mixture for 0, 4, 8, 16 or 24 hrs before preparation of extracts. […] The time course of protein decay on re-oxygenation was then assessed. Worms were grown in bell jars flushed with air (N) or a 0.1% oxygen/balance nitrogen mixture. Extracts were made either immediately, or after 4 and 8 minutes of re-oxygenation. Decay of ceHIF protein was very rapid on re-oxygenation. […] A time course RNAse protection assay showing cehif mRNA levels in worms exposed to 0.1% oxygen/balance nitrogen for 0, 4, 8, 16 and 24 hrs was carried out. No induction of ceHIF mRNA by hypoxia was seen. […] Induction by iron chelation was also studied in C. elegans. […]

[2] = test system: Hep3b and U20S cells; test: Gal4/HIF-1α 775-826 carboxy terminal transactivator luciferase reporter assay; type: cell-based, human; conditions: normoxia or 2% hypoxia overnight
Procedure: Hep3b and U20S cells were co-transfected with a mixture of three plasmids; pUAS.tk.luc, encoding a GAL 4 responsive luciferase gene, pgal-hif775-826, a mammalian expression plasmid leading to expression of a fusion between a 147 amino acid DNA binding domain of GAL 4 and the carboxy terminal transactivator of human HIF-1 alpha, and pCMV.beta-gal, encoding a constitutively expressed beta-galactosidase gene as a transfection control.
48 hours following transfection, cells were incubated in normoxia or 2% hypoxia overnight in the presence or absence of dimethyl oxalyl glycine as indicated. Cell lysates were assayed for luciferase and beta galactosidase activity and the relative luciferase activity in each sample determined.

[3] = test system: cytoplasmic extract-dependent modification of the 5′ VHL E3 target site; test: Peptide competition of cytoplasmic extract-dependent modification of GAL-HIF-1α 344-553, in vitro VHL E3 ubiquitylation; type: biochemical, human; conditions: 12.5 μM peptide, RCC4 cytoplasmic extract
Procedure: The E1 activating enzyme used in ubiquitylation assays was either obtained from Affiniti Research (Exeter, UK) or purified from BL21 (DE3) E. coli transfected with plasmid expressing His6-tagged mouse E1. His6-E1 was purified by Ni^2+-agarose affinity chromatography. After dialysis against phosphate buffered saline, glycerol was added to 10% (vol/vol) and 25 ng/μl aliquots stored at −80° C. Human CDC34 recombinant E2 enzyme was from Affiniti Research (Exeter, UK). VHL E3 was obtained by anti-HA immunoprecipitation from stably transfected 7860-VHLHA cell lysates (Iliopoulos et al). GAL-HIF-1α substrate was prepared by anti-GAL immunoprecipitation from [^35S] methionine-labeled TnT rabbit reticulocyte (Promega) translates. Each 40 μl ubiquitylation reaction consisted of 4 μl of 5 mg/ml ubiquitin, 4 μl of 10×ATP regenerating system (20 mM Tris pH7.5, 10 mM ATP, 10 mM magnesium acetate, 300 mM creatine phosphate, 0.5 mg/ml creatine phosphokinase), 2 μl, E1, 3 μl E2, 6 μl VHL E3 immunopurified on protein G sepharose, 6 μl GAL-HIF-1α substrate immunopurified on agarose beads. Reactions were incubated at 30° C. for 2 h with occasional mixing, stopped by the addition of SDS sample buffer and analysed by SDS-PAGE and autoradiography. Cytoplasmic extract-based ubiquitylation assays have been previously described (Cockman).
It has been shown above that the 3′ VHL E3 target site responds to oxygen level via hydroxylation at proline residue 564. This praline residue forms part of a potential motif conserved between the 5′ and 3′ target sites. Mutation of the corresponding proline residue (P402A) in the 5′ target site also results in functional inactivation. It was possible therefore that proline residue 402 was also a target for regulatory hydroxylation, To test this we asked whether polypeptides corresponding to the 3′ VHL E3 target site could interfere with the cytoplasmic extract-dependent modification of the 5′ VHL E3 target site. […]

Compound	ceHIF (HIF-1) protein level in normoxia [1]	relative luciferase activity (carboxy terminal transactivator) [2]	competition of cytoplasmic extract effect on VHL-dependent ubiquitylation of GAL 344-553 [3]
COC(=O)CNC(=O)C(=O)OC [dimethyloxalylglycine]	substantial increase in the amount of immunodetectable ceHIF; also recorded: strongly induced HIF-1	enhanced activity of the carboxy terminal transactivator	
19:WT: polypeptide comprising HIF-1α residues 556 to 574			completely ablate the cytoplasmic extract effect
19:Pro564Hyp: polypeptide (HIF-1α residues 556-574) containing a trans-4-hydroxy-S-proline residue at position 564			unable to compete
